The text below walks through data of PubChem BioAssay AID2060489 (Molecular Pharmacology Branch, DTP, NCI, 2025).

Values joined by “and” are separate entries in the source; they are usually repeats but may differ in a detail not shown here. Identical values can stand only once.

This experiment has as its system 922993-354-T-J3-PDC complex spheroids, viability. Nature of the experiment: Anticancer human tumor 922993-354-T-J3-PDC patient-derived endometrial carcinoma cell line growth inhibition [GQUAD]. As to conditions: for viability, T/C: stronger effect = lower value. In outline: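 Multi-cell-type spheroids of tumor cells with HUVEC and mesenchymal stem cells, treated with drug combinations. Concentrations descend in half-log steps from near clinical Cmax, or from 10 microM where Cmax is unknown; viability read-out.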

Setting [1] is: curve of first compound, second compound 0.0316 µM.
Setting [2] is: curve of first compound, second compound 0.1 µM.
The mark [3] stands for this setting: curve of first compound, second compound 0.316 µM.
[4] abbreviates: curve of first compound, second compound 1 µM.
Setting [5] is: curve of first compound, second compound 3.16 µM.
[6] abbreviates: curve of first compound, second compound 10 µM.
Where [7] appears, read: second compound 0.0316 µM, first compound 0.0316 µM.
The mark [8] stands for this setting: second compound 0.0316 µM, first compound 0.1 µM.
The mark [9] stands for this setting: second compound 0.0316 µM, first compound 0.316 µM.
The mark [10] stands for this setting: second compound 0.0316 µM, first compound 1 µM.
[11] abbreviates: second compound 0.0316 µM, first compound 3.16 µM.
Where [12] appears, read: second compound 0.0316 µM, first compound 10 µM.
[13] abbreviates: second compound 0.1 µM, first compound 0.0316 µM.
Setting [14] is: second compound 0.1 µM, first compound 0.1 µM.
Setting [15] is: second compound 0.1 µM, first compound 0.316 µM.
The mark [16] stands for this setting: second compound 0.1 µM, first compound 1 µM.
The mark [17] stands for this setting: second compound 0.1 µM, first compound 3.16 µM.
Setting [18] is: second compound 0.1 µM, first compound 10 µM.
Setting [19] is: second compound 0.316 µM, first compound 0.0316 µM.
Where [20] appears, read: second compound 0.316 µM, first compound 0.1 µM.
Where [21] appears, read: second compound 0.316 µM, first compound 0.316 µM.
The mark [22] stands for this setting: second compound 0.316 µM, first compound 1 µM.
The mark [23] stands for this setting: second compound 0.316 µM, first compound 3.16 µM.
Where [24] appears, read: second compound 0.316 µM, first compound 10 µM.
[25] abbreviates: second compound 1 µM, first compound 0.0316 µM.
Setting [26] is: second compound 1 µM, first compound 0.1 µM.
Setting [27] is: second compound 1 µM, first compound 0.316 µM.
[28] abbreviates: second compound 1 µM, first compound 1 µM.
[29] abbreviates: second compound 1 µM, first compound 3.16 µM.
Where [30] appears, read: second compound 1 µM, first compound 10 µM.
Where [31] appears, read: second compound 3.16 µM, first compound 0.0316 µM.
The mark [32] stands for this setting: second compound 3.16 µM, first compound 0.1 µM.
The mark [33] stands for this setting: second compound 3.16 µM, first compound 0.316 µM.
Setting [34] is: second compound 3.16 µM, first compound 1 µM.
Setting [35] is: second compound 3.16 µM, first compound 3.16 µM.
The mark [36] stands for this setting: second compound 3.16 µM, first compound 10 µM.
Where [37] appears, read: second compound 10 µM, first compound 0.0316 µM.
Where [38] appears, read: second compound 10 µM, first compound 0.1 µM.
Setting [39] is: second compound 10 µM, first compound 0.316 µM.
Setting [40] is: second compound 10 µM, first compound 1 µM.
Setting [41] is: second compound 10 µM, first compound 3.16 µM.
Setting [42] is: second compound 10 µM, first compound 10 µM.
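Also: spheroids exposed to compounds for seven days.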
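For viability, T/C in this document: 100% = DMSO vehicle control viability.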

As for `C=CC(=O)N1CCN(c2nc(=O)n(-c3c(C)ccnc3C(C)C)c3nc(-c4c(O)cccc4F)c(F)cc23)C(C)C1` (configuration not stated), the viability, T/C (as a rule, the result in the treated group divided by that in the control group, in per cent) reads like this: (compound 0.0316 µM) 101% and 110% and 99.2%; (compound 0.1 µM) 88.4% and 88.3% and 112%; (compound 0.316 µM) 102% and 124% and 99.9%; (compound 1 µM) 91.4% and 97.3% and 95.3%; (compound 3.16 µM) 93.3% and 95.4% and 128%; (compound 10 µM) 97.9% and 97.8% and 89.3%. The IC50 (commonly the midpoint of a concentration-inhibition curve) (curve of compound) is more than 10 µM.

Regarding `CC1COCCN1c1cc(C2(O)CC3CCC(C2)O3)c2cnn(-c3ccn[nH]3)c2n1` (configuration not stated), the viability, T/C (compound 0.0316 µM) is 93.2% and 97.1% and 107%; the viability, T/C (compound 0.1 µM) is 80.6% and 62.3% and 68.6%; the viability, T/C (compound 0.316 µM) is 54.2% and 56.9% and 63.5%; the viability, T/C (compound 1 µM) is 41.3% and 36% and 37.9%; the viability, T/C (compound 3.16 µM) was 26.8% and 19.8% and 23.5%; the viability, T/C (compound 10 µM) is 18.6% and 15.3% and 15.6%. In addition, for the setting “curve of compound”, the IC50 is 0.514 µM and 0.326 µM and 0.46 µM.

In the case of `CCCS(=O)(=O)Nc1ccc(F)c(C(=O)c2c[nH]c3ncc(-c4ccc(Cl)cc4)cc23)c1F`, the viability, T/C reads like this: (compound 0.0316 µM) 101% and 91.3% and 97.1%; (compound 0.1 µM) 81% and 90.5% and 83.1%; (compound 0.316 µM) 99.1% and 89.8% and 101%; (compound 1 µM) 87.5% and 81% and 76%; (compound 3.16 µM) 78.5% and 68.7% and 87.7%; (compound 10 µM) 37.7% and 68.9% and 71%. In addition, the concentration for half-maximal inhibition (IC50) (curve of compound) is 7.09 µM and > 10 µM.

On to `COc1ncnc(C2CC2)c1-c1ncc2cnn(Cc3ccc(-c4nc(C(F)(F)F)cn4C(C)C)cc3)c2n1` + Cc1cnc(CNC(=O)c2c(=O)c3ccc(N4CCCN(C)CC4)nc3n3c2sc2ccccc23)cn1, for which the IC50 was more than 10 µM under setting [1]; more than 10 µM under setting [2]; less than 0.0316 µM under setting [3]; less than 0.0316 µM under setting [4]; less than 0.0316 µM under setting [5]; 3.23 µM under setting [6]. Moreover, the viability, T/C by setting is: under setting [7], 98.1%; under setting [8], 72.7%; under setting [9], 80.5%; under setting [10], 48.3%; under setting [11], 59%; under setting [12], 63.4%. Besides, the viability, T/C under setting [13] was 67.8%; the viability, T/C under setting [14] was 44.2%; the viability, T/C under setting [15] was 45.6%; the viability, T/C under setting [16] is 44.3%; the viability, T/C under setting [17] was 51.4%; the viability, T/C under setting [18] is 70.4%. Further, the viability, T/C is 41% under setting [19]; 34.5% under setting [20]; 41.8% under setting [21]; 49.3% under setting [22]; 51.3% under setting [23]; 52.7% under setting [24]. Further, the viability, T/C is, setting by setting: under setting [25], 44.5%; under setting [26], 44.6%; under setting [27], 41.6%; under setting [28], 46.3%; under setting [29], 54.9%; under setting [30], 67.1%. For the same molecule, the viability, T/C reads like this: under setting [31], 40.9%; under setting [32], 41.7%; under setting [33], 50.3%; under setting [34], 49.2%; under setting [35], 43%; under setting [36], 55.7%. The viability, T/C was 48.6% under setting [37]; 47.7% under setting [38]; 52.6% under setting [39]; 49% under setting [40]; 53.3% under setting [41]; 40.1% under setting [42].

With `CC(=O)O[C@H]1C(=O)[C@@]2(C)[C@H]([C@H](OC(=O)c3ccccc3)[C@]3(O)C[C@H](OC(=O)[C@H](O)[C@@H](NC(=O)c4ccccc4)c4ccccc4)C(C)=C1C3(C)C)[C@]1(OC(C)=O)CO[C@@H]1C[C@@H]2O` + Cc1[nH]c2ccc(F)cc2c1-c1nc2c3cccnc3c3ncccc3c2[nH]1, the concentration for half-maximal inhibition (IC50) is, setting by setting: under setting [1], 6.76 µM; under setting [2], more than 10 µM; under setting [3], more than 10 µM; under setting [4], 9.27 µM; under setting [5], 8.19 µM; under setting [6], more than 10 µM. Moreover, the viability, T/C is, setting by setting: under setting [7], 109%; under setting [8], 84.6%; under setting [9], 124%; under setting [10], 115%; under setting [11], 68.4%; under setting [12], 40.5%. Also, the viability, T/C is 124% under setting [13]; 87.3% under setting [14]; 96.6% under setting [15]; 119% under setting [16]; 75.7% under setting [17]; 49.6% under setting [18]. In addition, the viability, T/C under setting [19] is 98.8%; the viability, T/C under setting [20] was 90.4%; the viability, T/C under setting [21] was 136%; the viability, T/C under setting [22] is 89.2%; the viability, T/C under setting [23] is 88.1%; the viability, T/C under setting [24] was 50.3%. The viability, T/C is 103% under setting [25]; 126% under setting [26]; 119% under setting [27]; 109% under setting [28]; 81.3% under setting [29]; 47.8% under setting [30]. Further, the viability, T/C reads like this: under setting [31], 104%; under setting [32], 115%; under setting [33], 124%; under setting [34], 136%; under setting [35], 93.6%; under setting [36], 40.9%. For the same molecule, the viability, T/C is 97.7% under setting [37]; 94% under setting [38]; 117% under setting [39]; 105% under setting [40]; 86.2% under setting [41]; 57.7% under setting [42].

For `CN(C)c1ccc(Nc2c3ccc(NC(=O)CCN4CCCC4)cc3nc3cc(NC(=O)CCN4CCCC4)ccc23)cc1`, the viability, T/C (compound 0.316 µM) is 99.4% [middle of 12 runs]. The IC50 (compound alone, run of 03/26/2024) was more than 10 µM.
